Test results as given in ChEMBL document CHEMBL2311425, “Histone deacetylase (HDAC) inhibitors with a novel connecting unit linker region reveal a selectivity profile for HDAC4 and HDAC5 with improved activity against chemoresistant cancer cells” (J Med Chem, 2013).

Columns and labels:
[1] = tested on: MDA-MB-231; assay: Potentiation of 10 uM cisplatin-induced toxicity in 1 uM cisplatin resistant human MDA-MB-231 cells at 0.5 uM pretreated for 48 hrs followed by 1 uM cisplatin treatment by MTT assay; format: functional
[2] = tested on: CAL-27; assay: Cytotoxicity against cisplatin resistant human CAL27 cells after 72 hrs by MTT assay; format: functional, cell-based; details: CAL-27, 72 h
[3] = tested on: A2780; assay: Potentiation of 8 uM cisplatin-induced toxicity in 5 uM cisplatin resistant human A2780 cells at 1.5 uM pretreated for 48 hrs followed by 5 uM cisplatin treatment by MTT assay; format: functional
[4] = tested on: KYSE-510; assay: Potentiation of 0.5 uM cisplatin-induced toxicity in 0.5 uM cisplatin resistant human KYSE-510 cells at 0.5 uM pretreated for 48 hrs followed by 0.5 uM cisplatin treatment by MTT assay; format: functional
[5] = tested on: CAL-27; assay: Potentiation of 45 uM cisplatin-induced toxicity in 1 uM cisplatin resistant human CAL27 cells at 0.5 uM pretreated for 48 hrs followed by 1 uM cisplatin treatment by MTT assay; format: functional
[6] = tested on: MDA-MB-231; assay: Potentiation of […] cisplatin-induced toxicity in 1 uM cisplatin resistant human MDA-MB-231 cells at 0.25 uM pretreated for 48 hrs followed by 1 uM cisplatin treatment by MTT assay; format: functional
[7] = tested on: CAL-27; assay: Cytotoxicity against cisplatin sensitive human CAL27 cells after 72 hrs by MTT assay; format: functional, cell-based; details: CAL-27, 72 h
[8] = tested on: KYSE-510; assay: Potentiation of 3.16 uM cisplatin-induced toxicity in 0.5 uM cisplatin resistant human KYSE-510 cells at 0.5 uM pretreated for 48 hrs followed by 0.5 uM cisplatin treatment by MTT assay; format: functional
[9] = tested on: CAL-27; assay: Potentiation of 1 uM cisplatin-induced toxicity in 1 uM cisplatin resistant human CAL27 cells at 0.5 uM pretreated for 48 hrs followed by 1 uM cisplatin treatment by MTT assay; format: functional
[10] = tested on: KYSE-510; assay: Potentiation of 8 uM cisplatin-induced toxicity in 0.5 uM cisplatin resistant human KYSE-510 cells at 0.25 uM pretreated for 48 hrs followed by 0.5 uM cisplatin treatment by MTT assay; format: functional
[11] = tested on: CAL-27; assay: Potentiation of 10 uM cisplatin-induced toxicity in 1 uM cisplatin resistant human CAL27 cells at 1 uM pretreated for 48 hrs followed by 1 uM cisplatin treatment by MTT assay; format: functional
[12] = molecular target: Histone deacetylase 2 (Homo sapiens, UniProt Q92769); assay: Inhibition of human HDAC2 by fluorescence assay
[13] = tested on: A2780; assay: Potentiation of 1 uM cisplatin-induced toxicity in 5 uM cisplatin resistant human A2780 cells at 1 uM pretreated for 48 hrs followed by 5 uM cisplatin treatment by MTT assay; format: functional
[14] = tested on: KYSE-510; assay: Potentiation of 0.5 uM cisplatin-induced toxicity in 0.5 uM cisplatin resistant human KYSE-510 cells at 1.5 uM pretreated for 48 hrs followed by 0.5 uM cisplatin treatment by MTT assay; format: functional
[15] = tested on: A2780; assay: Potentiation of 20 uM cisplatin-induced toxicity in 5 uM cisplatin resistant human A2780 cells at 0.5 uM pretreated for 48 hrs followed by 5 uM cisplatin treatment by MTT assay; format: functional
[16] = tested on: MDA-MB-231; assay: Potentiation of 10 uM cisplatin-induced toxicity in 1 uM cisplatin resistant human MDA-MB-231 cells at 1 uM pretreated for 48 hrs followed by 1 uM cisplatin treatment by MTT assay; format: functional
[17] = tested on: MDA-MB-231; assay: Potentiation of 25 uM cisplatin-induced toxicity in 1 uM cisplatin resistant human MDA-MB-231 cells at 1.5 uM pretreated for 48 hrs followed by 1 uM cisplatin treatment by MTT assay; format: functional
[18] = molecular target: Histone deacetylase; assay: Inhibition of HDAC in cisplatin resistant human KYSE-510 cells after 18 hrs by fluorescence assay; format: cell-based
[19] = tested on: A2780; assay: Cytotoxicity against human A2780 cells after 72 hrs by MTT assay; format: functional, cell-based; details: A2780, 72 h

Sequence of Histone deacetylase 2 (Q92769 whole entry): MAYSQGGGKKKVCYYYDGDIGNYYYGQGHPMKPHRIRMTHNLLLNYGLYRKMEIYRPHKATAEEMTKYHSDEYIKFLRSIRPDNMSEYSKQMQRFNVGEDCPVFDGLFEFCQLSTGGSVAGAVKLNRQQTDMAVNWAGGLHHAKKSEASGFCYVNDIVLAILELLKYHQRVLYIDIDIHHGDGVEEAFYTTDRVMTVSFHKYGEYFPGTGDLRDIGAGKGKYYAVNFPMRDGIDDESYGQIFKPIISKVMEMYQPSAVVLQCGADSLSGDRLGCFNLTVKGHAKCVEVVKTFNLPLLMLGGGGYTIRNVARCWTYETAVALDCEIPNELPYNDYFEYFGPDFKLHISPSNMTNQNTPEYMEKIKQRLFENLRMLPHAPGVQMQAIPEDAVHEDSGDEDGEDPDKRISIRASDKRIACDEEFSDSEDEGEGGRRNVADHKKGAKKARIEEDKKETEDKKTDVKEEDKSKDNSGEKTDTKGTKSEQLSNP

Cc1cc(C)cc(C(=O)NOCCCCCC(=O)NO)c1
Activity [1]: Dose-dependent effect | IC50 [2]: 1810 nM | Activity [3]: Dose-dependent effect | fractional inhibitory concentration index (FICI) [3]: 0.74 | Activity [4]: Dose-dependent effect | fractional inhibitory concentration index (FICI) [4]: 0.13 | Activity [5]: Dose-dependent effect | fractional inhibitory concentration index (FICI) [5]: 0.31 | Activity [6]: Dose-dependent effect | fractional inhibitory concentration index (FICI) [6]: 0.9 | IC50 [7]: 1030 nM | Activity [8]: Dose-dependent effect | fractional inhibitory concentration index (FICI) [8]: 0.09 | Activity [9]: Dose-dependent effect | fractional inhibitory concentration index (FICI) [9]: <0.2 | Activity [10]: Dose-dependent effect | fractional inhibitory concentration index (FICI) [10]: 0.18 | Activity [11]: Dose-dependent effect | fractional inhibitory concentration index (FICI) [11]: 0.24 | IC50 [12]: 881 nM | Activity [13]: Dose-dependent effect | fractional inhibitory concentration index (FICI) [13]: 0.82 | Activity [14]: Dose-dependent effect | fractional inhibitory concentration index (FICI) [14]: 0.06 | Activity [15]: Dose-dependent effect | fractional inhibitory concentration index (FICI) [15]: 0.58 | Activity [16]: Dose-dependent effect | fractional inhibitory concentration index (FICI) [16]: 0.85 | Activity [17]: Dose-dependent effect | fractional inhibitory concentration index (FICI) [17]: 0.73 | IC50 [18]: 350 nM | IC50 [19]: 490 nM
